Experimental data: patent publication US8759500B2, “Crystalline forms of a macrolide, and uses therefor” (Cempra Pharmaceuticals, Inc., priority 2010, dated 2014)
In brackets after ≈: the same amount, converted by molar mass.

Key:
[1] = Pharmacokinetic comparison of forms by dosing vehicle
[2] = Mean intrinsic dissolution studies; assay type: physicochemical
From the text: Mean intrinsic dissolution rates for exemplary batches of the two forms are shown in Table cC-2 for 3 batches of Form I (SD and % CV for one batch shown) and for Form II.

Dynamic vapor sorption = assay type: physicochemical
Procedure: The new physical form, Form I of CEM-101 is a crystalline form which may be described by its X-ray powder diffraction pattern. Peaks at approximate positions of about °2θ=8.8, 10.5, 13.2 and 18.6 are representative of this crystalline form. A more detailed analysis of the peaks is described in Tables 1-2 below. […] Water determination by Karl Fisher titration in typical lots is 0.6 to 1.1%. […] Form I of CEM-101 melts at about 200° C. by DSC analysis.
The new physical form, Form II of CEM-101 is a crystalline form which may be described by its X-ray powder diffraction pattern. Peaks at approximate positions of about °2θ=5.6, 7.9, 9.3, 11.7, 12.9 and 16.7 are representative of this crystalline form. A more detailed analysis of the peaks is described in Tables 3-4 below. Based on a single crystal X-ray determination and dynamic vapor sorption analysis, Form II appears to be a non-hygroscopic anhydrous crystalline form that melts at about 225° C. as a single endothermic event by DSC analysis. It is appreciated herein that non-hygroscopic solids, such as Form II described herein, may be advantageous in the preparation of pharmaceutical compositions. Such advantages include improved handling and stability properties in manufacturing, improved lot to lot quality control.

[3] = Oral pharmacokinetics in Balb/c mice, single dose 20 or 100 mg/kg; details: for AUCextrap: mean plasma; for AUC(0-inf) / AUC(0-t) / Cmax / Tmax / concentration at 0 h / concentration at 0.25 h / concentration at 0.5 h / concentration at 1 h / concentration at 2 h / concentration at 4 h / concentration at 6 h: Balb/c, mouse, plasma, po
Procedure: The doses were prepared as 2.0 mg/mL or 10.0 mg/mL in a vehicle of 0.5% (w/v) carboxymethyl cellulose in water and a dose volume of 10 mL/kg b.w. Blood samples were collected at various time points during the next 6 h post dose.

[4] = Stability of Form I and Form II under various storage conditions; assay type: physicochemical
From the text: In each case, the test material was first placed in Primary Packaging Material (LLDPE bag within a HMHDPE/LDPE/LDPE blend bag, and then heat sealed). The Primary Packaging Material was placed in Secondary Packaging Material (HDPE drum). All other impurities were less than 1% at each time point.

[5] = Aqueous solubility in water at indicated pH; details: water at adjusted pH, 26 °C, thermodynamic from solid

difference in measured pharmacokinetic parameters, including Cmax, Tmax, and AUC, among Form I and Form II ([1]; dosed in a vehicle in which the compound is present as a solid): no statistical difference | difference in measured pharmacokinetic parameters, including Cmax, Tmax, and AUC, among Form I and Form II ([1]; dosed in a vehicle in which the compound is well solubilized): no observed difference | Mean intrinsic dissolution rate ([2]; 0.1N Hydrochloric Acid): 8.8 mg/min/cm^2 | Mean intrinsic dissolution rate ([2]; Acetate buffer, pH 4.5): 2.7 mg/min/cm^2 | Mean intrinsic dissolution rate ([2]; Phosphate buffer, pH 6.8): 0.01 mg/min/cm^2 | hygroscopicity (Dynamic vapor sorption): non-hygroscopic | AUCextrap ([3]; Female Balb/c mouse, 20 mg/kg oral, listed as CEM-101 Form II, 20 mg/kg): 12% | AUCextrap ([3]; Male Balb/c mouse, 20 mg/kg oral, listed as CEM-101 Form II, 20 mg/kg): 42% | AUCextrap ([3]; Male Balb/c mouse, 100 mg/kg oral): 33% | AUC(0-inf) ([3]; female, 20 mg/kg): 36000 ng·h/mL | AUC(0-t) ([3]; female, 20 mg/kg): 31600 ng·h/mL | Cmax ([3]; female, 20 mg/kg): 8800 ng/mL | Tmax ([3]; female, 20 mg/kg): 0.5 h | concentration at 0 h ([3]; female, 20 mg/kg): 0 ng/mL | concentration at 0.25 h ([3]; female, 20 mg/kg): 6200 ± 1600 ng/mL | concentration at 0.5 h ([3]; female, 20 mg/kg): 8800 ± 800 ng/mL | concentration at 1 h ([3]; female, 20 mg/kg): 7300 ± 900 ng/mL | concentration at 2 h ([3]; female, 20 mg/kg): 6100 ± 1000 ng/mL | concentration at 4 h ([3]; female, 20 mg/kg): 5500 ± 1700 ng/mL | concentration at 6 h ([3]; female, 20 mg/kg): 1300 ± 500 ng/mL | AUC(0-t) ([3]; female, 100 mg/kg): 55000 ng·h/mL | Cmax ([3]; female, 100 mg/kg): 10500 ng/mL | Tmax ([3]; female, 100 mg/kg): 4 h | concentration at 0 h ([3]; female, 100 mg/kg): 0 ng/mL | concentration at 0.25 h ([3]; female, 100 mg/kg): 7300 ± 900 ng/mL | concentration at 0.5 h ([3]; female, 100 mg/kg): 10500 ± 1400 ng/mL | concentration at 1 h ([3]; female, 100 mg/kg): 9600 ± 2200 ng/mL | concentration at 2 h ([3]; female, 100 mg/kg): 9500 ± 2200 ng/mL | concentration at 4 h ([3]; female, 100 mg/kg): 10200 ± 1000 ng/mL | concentration at 6 h ([3]; female, 100 mg/kg): 7800 ± 1100 ng/mL | AUC(0-inf) ([3]; male, 20 mg/kg): 49000 ng·h/mL | AUC(0-t) ([3]; male, 20 mg/kg): 29000 ng·h/mL | Cmax ([3]; male, 20 mg/kg): 6730 ng/mL | Tmax ([3]; male, 20 mg/kg): 0.5 h | concentration at 0 h ([3]; male, 20 mg/kg): 0 ng/mL | concentration at 0.25 h ([3]; male, 20 mg/kg): 4100 ± 800 ng/mL | concentration at 0.5 h ([3]; male, 20 mg/kg): 6700 ± 600 ng/mL | concentration at 1 h ([3]; male, 20 mg/kg): 5900 ± 800 ng/mL | concentration at 2 h ([3]; male, 20 mg/kg): 5600 ± 400 ng/mL | concentration at 4 h ([3]; male, 20 mg/kg): 4900 ± 1100 ng/mL | concentration at 6 h ([3]; male, 20 mg/kg): 2900 ± 600 ng/mL | AUC(0-inf) ([3]; male, 100 mg/kg): 99000 ng·h/mL | AUC(0-t) ([3]; male, 100 mg/kg): 66000 ng·h/mL | Cmax ([3]; male, 100 mg/kg): 10600 ng/mL | Tmax ([3]; male, 100 mg/kg): 4 h | concentration at 0 h ([3]; male, 100 mg/kg): 0 ng/mL | concentration at 0.25 h ([3]; male, 100 mg/kg): 6800 ± 700 ng/mL | concentration at 0.5 h ([3]; male, 100 mg/kg): 6900 ± 1100 ng/mL | concentration at 1 h ([3]; male, 100 mg/kg): 8700 ± 2700 ng/mL | concentration at 2 h ([3]; male, 100 mg/kg): 9300 ± 1200 ng/mL | concentration at 4 h ([3]; male, 100 mg/kg): 10600 ± 1400 ng/mL | concentration at 6 h ([3]; male, 100 mg/kg): 7200 ± 800 ng/mL | Assay (on hydrous basis) ([4]; 2-8° C., 3 Month): 93.4% | Chromatographic Purity ([4]; 2-8° C., 3 Month): 96.0 | Water ([4]; 2-8° C., 3 Month): 1.24% | Assay (on hydrous basis) ([4]; 2-8° C., 6 Month): 93.6% | Chromatographic Purity ([4]; 2-8° C., 6 Month): 96.8 | Water ([4]; 2-8° C., 6 Month): 1.39% | 3-Ethynylaniline ([4]; 2-8° C., 9 Month): 0.01% | Assay (on hydrous basis) ([4]; 2-8° C., 9 Month): 93.3% | Chromatographic Purity ([4]; 2-8° C., 9 Month): 96.4 | Water ([4]; 2-8° C., 9 Month): 1.38% | 3-Ethynylaniline ([4]; 2-8° C., 12 Month): 0.12% | Assay (on hydrous basis) ([4]; 2-8° C., 12 Month): 93% | Chromatographic Purity ([4]; 2-8° C., 12 Month): 96.8 | Water ([4]; 2-8° C., 12 Month): 1.37% | Assay (on hydrous basis) ([4]; 2-8° C., Initial): 93.9% | Chromatographic Purity ([4]; 2-8° C., Initial): 97.0 | Water ([4]; 2-8° C., Initial): 1.01% | Assay (on hydrous basis) ([4]; 25° C./60% RH, 3 Month): 93.6% | Chromatographic Purity ([4]; 25° C./60% RH, 3 Month): 96.0% | Water ([4]; 25° C./60% RH, 3 Month): 1.16% | Assay (on hydrous basis) ([4]; 25° C./60% RH, 6 Month): 93.7% | Chromatographic Purity ([4]; 25° C./60% RH, 6 Month): 96.7% | Water ([4]; 25° C./60% RH, 6 Month): 1.42% | 3-Ethynylaniline ([4]; 25° C./60% RH, 9 Month): 0.04% | Assay (on hydrous basis) ([4]; 25° C./60% RH, 9 Month): 93.2% | Chromatographic Purity ([4]; 25° C./60% RH, 9 Month): 96.2% | Water ([4]; 25° C./60% RH, 9 Month): 1.45% | 3-Ethynylaniline ([4]; 25° C./60% RH, 12 Month): 0.11% | Assay (on hydrous basis) ([4]; 25° C./60% RH, 12 Month): 93.0% | Chromatographic Purity ([4]; 25° C./60% RH, 12 Month): 96.1% | Water ([4]; 25° C./60% RH, 12 Month): 1.48% | Assay (on hydrous basis) ([4]; 25° C./60% RH, Initial): 93.9% | Chromatographic Purity ([4]; 25° C./60% RH, Initial): 97.0% | Water ([4]; 25° C./60% RH, Initial): 1.01% | Assay (on hydrous basis) ([4]; 40° C./75% RH, 3 Month): 93.0% | Chromatographic Purity ([4]; 40° C./75% RH, 3 Month): 95.9% | Water ([4]; 40° C./75% RH, 3 Month): 1.24% | Assay (on hydrous basis) ([4]; 40° C./75% RH, 6 Month): 93.1% | Chromatographic Purity ([4]; 40° C./75% RH, 6 Month): 96.5% | Water ([4]; 40° C./75% RH, 6 Month): 1.62% | 3-Ethynylaniline ([4]; 40° C./75% RH, 9 Month): 0.02% | Assay (on hydrous basis) ([4]; 40° C./75% RH, 9 Month): 92.5% | Chromatographic Purity ([4]; 40° C./75% RH, 9 Month): 96.2% | Water ([4]; 40° C./75% RH, 9 Month): 1.51% | 3-Ethynylaniline ([4]; 40° C./75% RH, 12 Month): 0.05% | Assay (on hydrous basis) ([4]; 40° C./75% RH, 12 Month): 92.3% | Chromatographic Purity ([4]; 40° C./75% RH, 12 Month): 97.1% | Water ([4]; 40° C./75% RH, 12 Month): 1.56% | Assay (on hydrous basis) ([4]; 40° C./75% RH, Initial): 93.9% | Chromatographic Purity ([4]; 40° C./75% RH, Initial): 97.0% | Water ([4]; 40° C./75% RH, Initial): 1.01% | change in color of the test material ([4]; during the entire study, all storage conditions): no observed change in color | solubility at 6 h ([5]; pH 1.2, simulated gastric fluid): 3640 µg/mL (≈ 4310 µM) | solubility at 6 h ([5]; pH 4, aqueous buffer): 361 µg/mL (≈ 427 µM) | solubility at 6 h ([5]; pH 7.4, aqueous buffer): 305 µg/mL (≈ 361 µM) | solubility at 6 h ([5]; pH 9.2, aqueous buffer): 331 µg/mL (≈ 392 µM)
SMILES: CC[C@H]1OC(=O)[C@@](C)(F)C(=O)[C@H](C)[C@@H](O[C@@H]2O[C@H](C)C[C@H](N(C)C)[C@H]2O)[C@](C)(OC)C[C@@H](C)C(=O)[C@H](C)[C@H]2N(CCCCn3cc(-c4cccc(N)c4)nn3)C(=O)O[C@]12C [Form II, solithromycin]
